“Also recorded” adds a separate entry of the source. Where no end group is shown, it is not given here.
Key:
[1] = Iron binding (UV trace after addition of iron); type: physicochemical
Description: (§1) FIG. 5 illustrates the biophysical characterization of hinokitiol.

[2] = Release of iron from POPC liposomes
Description: as §1

[3] = system: DMT1-deficient Caco-2 epithelia monolayers; experiment: 55Fe uptake and transepithelial transport in DMT1-deficient Caco-2 monolayers; settings: for 55Fe uptake into cells / transepithelial 55Fe transport: shDMT1 monolayers, apical addition
Description: (§2) In normal epithelia, iron brought into the cell via apical DMT1 transporters is stored in cytosolic ferritin clusters and directionally exported through the basolateral membrane by FPN1. Transepithelial iron flux via this network of proteins is regulated by the iron response element which is sensitive to intracellular iron concentrations.

[4] = system: Reticulocytes isolated ex vivo from DMT1-deficient Belgrade (b/b) rats; experiment: 59Fe incorporation into heme in reticulocytes isolated ex vivo; settings: for 59Fe incorporation into heme: plasma spiked with 59Fe-transferrin, b/b reticulocytes
Description: The capacity for hinokitiol to restore hemoglobinization in DMT1-deficient erythroid progenitors was evaluated. Reticulocytes isolated ex vivo from DMT1-deficient Belgrade (b/b) and healthy (+/b) rats were incubated in plasma spiked with ^59Fe-transferrin to assess hinokitiol's ability to promote iron utilization.
The use of these MEL cells allowed us to test the hypothesis that hinokitiol autonomously transports iron down pre-existing concentration gradients. To do this, we utilized live cell fluorescence imaging with iron-specific dyes to visualize intracellular iron distribution.

DMT1-deficient MEL cells [5] = experiment: Differentiation / hemoglobinization of DMT1-deficient MEL cells (o-dianisidine staining); settings: for differentiation (staining of hemoglobinized cells with o-dianisidine): 2% DMSO induction
Description: To gain a better fundamental understanding of this phenomenon, DS19 murine erythroleukemia (MEL) cells were used. These terminally differentiate toward developing erythrocytes after induction with 2% DMSO leading to increased iron uptake and globin expression. DMT1-deficient cell lines through shRNA knockdown were developed (FIG. 7, panel (B)).

[6] = system: DMT1-deficient Belgrade (b/b) rats; experiment: Chronic exposure of Belgrade (b/b) rats in rat chow: hematocrit; type: in vivo; settings: for hematocrit after one month of treatment: 0.2% in rat chow (˜100 mg/kg/day)
Description: (§3) Belgrade (b/b) rats (FIG. 3, panel (A)) are the leading model of the disease and display severe hematological defects such as decreased hematocrit values amongst other markers.

[7] = system: Mitoferrin-deficient MEL cell lines; experiment: Hemoglobinization and 55Fe use in mitoferrin-deficient MEL cells; type: cell-based, murine; settings: for hemoglobinization: conditions identical to DMT1-deficient cells
hino-rescued yeast = experiment: Sensitivity of hinokitiol-rescued yeast to chemical inhibitors; type: cell-based, S. cerevisiae; settings: ebselen: Pma1; bafilomycin: V-ATPase; caspofungin: off-pathway cell wall biosynthesis
[8] = Description: as §1
[9] = system: S. cerevisiae missing the iron transporting complex Fet3Ftr1 (fet3Δftr1Δ); experiment: Modified functional complementation: growth rescue of iron transporter-deficient yeast; type: cell-based
Description: To identify small molecules which perform such transport, a modified functional complementation experiment was performed. […] Growth restoration is not due to generic hormetic effects (FIG. 4, panel (D)) and can be sustained >40 days with continued reliance on hinokitiol (FIG. 4, panel (E)).

FPN1 = experiment: 55Fe uptake and transepithelial transport in control Caco-2 monolayers with FPN1 down-regulated by quercetin; type: cell-based, human
Description: as §2

DMT1-deficient MEL cells [10] = experiment: Live cell fluorescence imaging of intracellular iron distribution with iron-specific dyes; type: cell-based, murine
[11] = Toxicity and pharmacokinetic half-life in healthy rats
Description: as §3

Permeability assays = type: in vitro ADME; settings: not told
Description: This was sustained for >2 months.

TMEM14CΔ = experiment: Hemoglobinization in heme biosynthesis-deficient (TMEM14CΔ) cells; type: cell-based
J774 macrophages = type: cell-based
Description: To test the capacity for hinokitiol to restore iron release in FPN1 deficiencies, J774 macrophages were utilized. J774 cells with ^55Fe-transferrin were incubated in the absence or presence of hepcidin. Hepcidin is a key iron regulator, down-regulating FPN1 by promoting its degradation.

[12] = 0.2% of feed, 13 weeks orally; cited from earlier work
[13] = control monolayers treated with quercetin

Molecule: CC(C)c1cccc(=O)cc1 [C2deOHino, C2-deoxy hinokitiol]
- iron binding [1]: ablated iron binding and transport; also recorded: does not bind or transport iron; also recorded: does not
- iron transport (release of iron from POPC liposomes) [2]: ablated iron binding and transport; also recorded: does not bind or transport iron; also recorded: do not
- 55Fe uptake into cells ([3]; hinokitiol 500 nM): unable to promote uptake or transport
- transepithelial 55Fe transport ([3]; hinokitiol 500 nM): unable to promote uptake or transport
- 59Fe incorporation into heme [4]: no apparent effect
- differentiation (staining of hemoglobinized cells with o-dianisidine) (DMT1-deficient MEL cells [5]; shDMT1 MEL cells, 72 hours): unable to restore physiology in any case
- hematocrit after one month of treatment [6]: low hematocrits normally observed for untreated b/b rats
- 55Fe incorporation into heme [7]: did not produce these effects
- 55Fe uptake [7]: did not produce these effects
- hemoglobinization [7]: did not produce these effects

Molecule: CO/C1=C\C(C)=C\[C@@H](C)[C@@H](O)[C@@H](C)C/C(C)=C/C=C/[C@H](OC)[C@@H]([C@@H](C)[C@@H](O)[C@H](C)[C@@]2(O)C[C@@H](O)[C@H](C)[C@@H](C(C)C)O2)OC1=O [bafilomycin]
- sensitivity of hino-rescued yeast to chemical inhibition (hino-rescued yeast): exceptionally sensitive

Molecule: CC[C@H](C)C[C@H](C)CCCCCCCCC(=O)N[C@H]1C[C@@H](O)[C@@H](NCCN)NC(=O)[C@@H]2[C@@H](O)CCN2C(=O)[C@H]([C@H](O)CCN)NC(=O)[C@H]([C@H](O)[C@@H](O)c2ccc(O)cc2)NC(=O)[C@@H]2C[C@@H](O)CN2C(=O)[C@H]([C@@H](C)O)NC1=O [caspofungin]
- sensitivity of hino-rescued yeast to chemical inhibition (hino-rescued yeast): equi-sensitive

Molecule: Cc1c(O)c(=O)ccn1C [deferiprone, reference compound]
- solubility in hexanes / partitioning into water [8]: partition primarily into water
- 55Fe uptake into cells ([3]; hinokitiol 500 nM): unable to promote uptake or transport
- transepithelial 55Fe transport ([3]; hinokitiol 500 nM): unable to promote uptake or transport

Molecule: CC(C)c1cccc(=O)c(O)c1 [hinokitiol, 2-hydroxy-6-propan-2-ylcyclohepta-2,4,6-trien-1-one]
- time over which growth restoration can be sustained ([9]; continued reliance on hinokitiol): > 40 days
- restoration of cell growth ([9]; fet3Δftr1Δ yeast): restored cell growth
- growth level relative to wild type ([9]; hinokitiol-treated fet3Δftr1Δ yeast, liquid media): grow to wild type levels
- influx of 55Fe into cells ([9]; yeast): restoration of influx of ^55Fe into cells
- iron binding [1]: confirmed; also recorded: binds iron
- iron transport (release of iron from POPC liposomes) [2]: confirmed; also recorded: promotes the release of iron from POPC liposomes
- DMT1 expression after hinokitiol [3]: independent of DMT1 expression; also recorded: does not induce expression of DMT1
- 55Fe uptake as function of hinokitiol dosage ([3]; DMT1-deficient monolayers): proportional to the hinokitiol dosage
- transepithelial 55Fe transport at high hinokitiol concentrations ([3]; DMT1-deficient monolayers): reduced when a high intracellular iron concentration is reached
- basolateral to apical iron transport ([3]; basolateral addition of 55Fe and hinokitiol): failed to promote transport of iron from the basolateral to the apical side
- monolayer integrity ([3]; hinokitiol 500 nM): without disrupting monolayer integrity
- 55Fe incorporation into ferritin ([3]; immunoprecipitation of ferritin after apical 55Fe, DMT1-deficient monolayers): restored high incorporation of ^55Fe into ferritin
- uptake and transport at range of pH ([3]; pHs observed throughout the duodenum): maintained at a range of pHs observed throughout the duodenum
- 55Fe uptake into cells ([3]; hinokitiol 500 nM): restored
- transepithelial 55Fe transport ([3]; hinokitiol 500 nM): restored
- restoration of transepithelial transport in FPN1 down-regulated monolayers (FPN1; quercetin-treated monolayers plus hinokitiol): unable to restore transepithelial transport
- hemolysis ([4]; at concentrations increasing heme incorporation): did not cause hemolysis
- 59Fe incorporation into heme [4]: increased ^59Fe incorporation into heme in a dose-dependent fashion; also recorded: restored incorporation of ^59Fe into heme
- differentiation without DMSO induction (DMT1-deficient MEL cells [5]; no DMSO induction): unable to promote differentiation without DMSO induction
- differentiation (staining of hemoglobinized cells with o-dianisidine) (DMT1-deficient MEL cells [5]; shDMT1 MEL cells, 72 hours): restored differentiation
- toxicity (DMT1-deficient MEL cells [5]; shDMT1 MEL cells, 72 hours): without toxicity
- cytosolic iron levels (calcein green) (DMT1-deficient MEL cells [10]): increased cytosolic and mitochondrial levels
- endosomal iron levels (oxyburst green) (DMT1-deficient MEL cells [10]): decreased endosomal iron levels
- mitochondrial iron levels (RPA) (DMT1-deficient MEL cells [10]): increased cytosolic and mitochondrial levels
- pharmacokinetic half life ([11]; IP injection in F344 rats): reasonable pharmacokinetic half life
- toxicity in healthy rats ([11]; rat, in vivo): relatively non-toxic
- oral bioavailability in vivo suggested by permeability assays (Permeability assays): good oral bioavailability
- time over which hematocrit restoration was sustained ([6]; 0.2% in rat chow): > 2 months
- hematocrit after one month of treatment ([6]; 100 mg/kg/day): restored hematocrit to b/b rats to levels that are no longer considered anemic; also recorded: restores hematocrit to non-anemic values
- hematocrit after four weeks of treatment ([6]; 0.2% of feed, ˜125 mg/kg each day): significant increases in hematocrit
- 55Fe incorporation into heme [7]: increases in ^55Fe uptake and incorporation into heme
- 55Fe uptake [7]: increases in ^55Fe uptake and incorporation into heme
- hemoglobinization [7]: restored hemoglobinization
- hemoglobinization (TMEM14CΔ): did not restore hemoglobinization
- toxicity (J774 macrophages): without observable toxicity
- release of intracellular iron (J774 macrophages; J774 cells with 55Fe-transferrin, FPN1 down-regulated with hepcidin): released this intracellular iron back to normal levels in dose-dependent fashion
- lethality [12]: non-lethal

Molecule: Cc1ncc(CO)c(C=NNC(=O)c2ccncc2)c1O [pyridoxal isonicotinoyl hydrazone, reference compound]
- 55Fe uptake into cells ([3]; hinokitiol 500 nM): unable to promote uptake or transport
- transepithelial 55Fe transport ([3]; hinokitiol 500 nM): unable to promote uptake or transport

Molecule: O=c1c(O)c(-c2ccc(O)c(O)c2)oc2cc(O)cc(O)c12 [quercetin]
- transepithelial transport after FPN1 down-regulation (FPN1; [13]): decreased transepithelial transport
- uptake after FPN1 down-regulation (FPN1; [13]): without affecting uptake

Molecule: CC(C)c1cccc([O-])c(=O)c1.CC(C)c1cccc([O-])c(=O)c1.CC(C)c1cccc([O-])c(=O)c1.[Fe+3] [tris(hinacolato) iron (III)]
- partitioning of iron complex into octanol [8]: predominantly partitions into octanol
- solubility in hexanes / partitioning into water [8]: soluble in hexanes

Molecule: hepcidin: key iron regulator, down-regulating FPN1 by promoting its degradation (DTHFPICIFCCGCCHRSKCGMCCKT; ends and bridges not checked; cysteine pairing not given here; UniProt P81172 60-84, looked up) [reference compound]
- iron release after FPN1 down-regulation (J774 macrophages; J774 cells with 55Fe-transferrin, presence of hepcidin): reduced iron release

From patent US11517540B2, “Restoring physiology in iron-deficient organisms using small molecules” (The Board of Trustees of the University of Illinois, priority 2015, dated 2022)
